Here are results for one molecule from US12364689B2, “Dosage regimen for the treatment of cancer” (AstraZeneca AB, priority 2020, dated 2025).

Series [1] in a line: Phase 1 clinical trial: pharmacokinetics of AZD9833 in plasma. It is filed as in vivo, human. An excerpt: The “median terminal half-life” is the median time for a patient's drug blood plasma concentration to halve after reaching pseudo-equilibrium.
Pharmacokinetics: The characterisation of the pharmacokinetics of single and multiple doses of AZD9833 is a secondary objective of this study. Any residual sample remaining after PK analysis has been performed may be used to identify, characterise, and establish the concentration of AZD9833 metabolites and drug-related products in plasma, and/or to conduct exploratory biomarker research. Analysis of AZD9833 in plasma and urine will be performed using appropriate bioanalytical methods. Full details of the analytical methods used will be described in separate bioanalytical reports.
All samples within the known stability of the analytes of interest at the time of receipt by the bioanalytical laboratory will be analysed. In addition, the PK samples may be subjected to further analyses to identify, characterise, and establish the concentration of metabolites in plasma. Any results from such analyses will be reported separately from the clinical study report. Incurred sample reproducibility analysis, if any, will be performed with the bioanalysis of the test samples. The results from the evaluation will not be reported in the clinical study report but, separately, in a bioanalytical report. […]

The subject of series [2] is ER signalling pathway / Ki67. Kind of series: Phase 1 clinical trial: pharmacodynamic biomarkers in paired tumour biopsies. It is filed as in vivo, human. The text has this: Pharmacodynamics: Pharmacodynamic measurements will be made on a number of biomarkers (e.g., optional tumour biopsies, plasma ctDNA, CTC, and archival tumour tissue). Biological samples (archival tumour tissue, mandatory and optional biopsies where applicable) will be collected for the analysis of tumour DNA as an exploratory objective in this study. A 2-mL blood sample for DNA isolation will be collected prior to administration of the first dose of AZD9833 from subjects who have consented to participate in the genetic analysis component of this study. If for any reason the sample is not drawn prior to dosing, it may be taken at any visit until the last study visit. Only one sample for genetic research should be collected per subject during the study. Participation is optional.
In Part A, paired tumour biopsy samples will be taken from at least 2 subjects at each dose level. In Part B, these biopsies will be taken from at least 5 post-menopausal subjects at each AZD9833 dose level, 300 mg, 150 mg and 75 mg and at least 5 from pre-menopausal subjects at 300 mg. If subjects are willing to participate in this part of the study, they will sign a biopsy-specific written informed consent. Paired tumour biopsies will be obtained from subjects with accessible tumours who have consented to biopsies. […]

For the molecule `C[C@@H]1Cc2c(ccc3[nH]ncc23)[C@@H](c2ccc(NC3CN(CCCF)C3)cn2)N1CC(F)(F)F` [AZD9833, N-(1-(3-fluoropropyl)azetidin-3-yl)-6-((6S,8R)-8-methyl-7-(2,2,2-trifluoroethyl)-6,7,8,9-tetrahydro-3H-pyrazolo[4,3-f]isoquinolin-6-yl) pyridin-3-amine], in series [1] (after multiple doses), the “AZD9833 exposure versus dose” value is listed as “dose proportional”. Also, the half-life in series [1] (human, plasma, patients, oral QD dosing, across five doses, read-out: median terminal t1/2 (converted)) was 720 min. Besides, the “ER signalling pathway modulation” value in series [2] (all dose cohorts) was “observed in all dose cohorts”. Moreover, the “reduction in Ki67” value in series [2] (patients where clinical responses occurred and paired biopsies obtained) was determined as 98%.
